Broadly, the IC50 is the midpoint of a concentration-inhibition curve.

The text below walks through data of paper PMC2999579 (Molecular imaging and biology : MIB : the official …, 2009).

The target of the test is integrin αvβ3 (Homo sapiens, UniProt P05106+P06756). In words: Competitive cell-binding assay with ^125I-echistatin on U87MG cells. Particulars: SD.

In turn, `CC(F)C(=O)NC[C@@H]1O[C@H](C(=O)NCCCC[C@@H]2NC(=O)[C@@H](Cc3ccccc3)NC(=O)[C@H](CC(=O)O)NC(=O)CNC(=O)[C@H](CCCNC(=N)N)NC2=O)[C@H](O)[C@H](O)[C@H]1O` (stereo partly shown) [galacto-RGD, FP-SAA-c(RGDfK)] came in with an IC50 of 404 ± 38 nM.
